From ChEMBL document CHEMBL5465560, “Selectivity Literature for EUbOPEN Chemogenomic Library” (2024)
One block for each compound: values may come before it.

Key:
[1] = target: Bone morphogenetic protein receptor type-1B (Homo sapiens, UniProt O00238); assay: Selectivity interaction (Kinase panel (Reaction Biology)) EUB0001184b BMPR1B; settings: at 1 µM
[2] = target: Mitogen-activated protein kinase kinase kinase kinase 4 (Homo sapiens, UniProt O95819); assay: Selectivity interaction (Kinase panel (Reaction Biology)) EUB0001184b MAP4K4; settings: at 1 µM
Sequence of Mitogen-activated protein kinase kinase kinase kinase 4 (O95819 2-1239 limits assumed): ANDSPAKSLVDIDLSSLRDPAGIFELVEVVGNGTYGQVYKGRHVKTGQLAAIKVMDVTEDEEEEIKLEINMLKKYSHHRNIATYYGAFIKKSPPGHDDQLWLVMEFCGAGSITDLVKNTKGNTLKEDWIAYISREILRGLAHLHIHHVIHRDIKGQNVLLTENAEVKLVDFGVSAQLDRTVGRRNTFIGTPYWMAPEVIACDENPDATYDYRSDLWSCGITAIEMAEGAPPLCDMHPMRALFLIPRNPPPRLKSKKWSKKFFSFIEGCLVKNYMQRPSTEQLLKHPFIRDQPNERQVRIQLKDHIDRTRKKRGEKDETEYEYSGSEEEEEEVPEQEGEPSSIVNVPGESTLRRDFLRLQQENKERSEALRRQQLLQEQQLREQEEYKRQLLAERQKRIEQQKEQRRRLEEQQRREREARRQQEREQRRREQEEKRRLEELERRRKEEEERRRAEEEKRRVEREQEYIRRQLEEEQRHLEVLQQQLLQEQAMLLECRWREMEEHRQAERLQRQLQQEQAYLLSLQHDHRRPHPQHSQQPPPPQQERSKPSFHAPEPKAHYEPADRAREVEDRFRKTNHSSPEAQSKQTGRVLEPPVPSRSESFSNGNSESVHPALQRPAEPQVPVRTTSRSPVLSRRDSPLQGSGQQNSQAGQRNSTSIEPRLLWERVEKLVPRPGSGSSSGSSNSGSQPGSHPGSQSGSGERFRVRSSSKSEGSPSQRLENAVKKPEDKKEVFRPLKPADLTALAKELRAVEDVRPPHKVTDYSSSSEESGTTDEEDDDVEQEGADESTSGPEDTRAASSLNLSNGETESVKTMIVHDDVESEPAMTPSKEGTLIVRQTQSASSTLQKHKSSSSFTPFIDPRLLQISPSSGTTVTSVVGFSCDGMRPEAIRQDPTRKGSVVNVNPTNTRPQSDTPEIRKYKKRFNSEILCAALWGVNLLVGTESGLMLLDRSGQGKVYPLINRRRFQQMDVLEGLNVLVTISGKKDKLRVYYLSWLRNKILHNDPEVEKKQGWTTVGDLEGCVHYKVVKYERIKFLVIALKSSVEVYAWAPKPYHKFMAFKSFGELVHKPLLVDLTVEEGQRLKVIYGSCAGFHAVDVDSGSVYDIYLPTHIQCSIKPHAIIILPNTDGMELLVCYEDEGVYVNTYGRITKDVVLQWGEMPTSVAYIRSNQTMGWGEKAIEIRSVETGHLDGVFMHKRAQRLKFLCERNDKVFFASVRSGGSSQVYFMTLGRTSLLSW

[3] = target: TRAF2 and NCK-interacting protein kinase (Homo sapiens) (UniProt Q9UKE5); assay: Selectivity interaction (Kinase panel (Reaction Biology)) EUB0001184b TNIK; settings: at 1 µM
[4] = target: 5-hydroxytryptamine receptor 4 (Homo sapiens) (UniProt Q13639); assay: Selectivity interaction (CEREB panel (panel of receptors, transporters, ion channels, and other enzymes)) EUB0001119a HTR4; settings: at 10 µM
[5] = target: T1, 5-hydroxytryptamine receptor 1A (Homo sapiens) (UniProt P08908); assay: Selectivity interaction (CEREB panel (panel of receptors, transporters, ion channels, and other enzymes)) EUB0001119a HTR1A; settings: at 10 µM
T1 sequence (whole entry): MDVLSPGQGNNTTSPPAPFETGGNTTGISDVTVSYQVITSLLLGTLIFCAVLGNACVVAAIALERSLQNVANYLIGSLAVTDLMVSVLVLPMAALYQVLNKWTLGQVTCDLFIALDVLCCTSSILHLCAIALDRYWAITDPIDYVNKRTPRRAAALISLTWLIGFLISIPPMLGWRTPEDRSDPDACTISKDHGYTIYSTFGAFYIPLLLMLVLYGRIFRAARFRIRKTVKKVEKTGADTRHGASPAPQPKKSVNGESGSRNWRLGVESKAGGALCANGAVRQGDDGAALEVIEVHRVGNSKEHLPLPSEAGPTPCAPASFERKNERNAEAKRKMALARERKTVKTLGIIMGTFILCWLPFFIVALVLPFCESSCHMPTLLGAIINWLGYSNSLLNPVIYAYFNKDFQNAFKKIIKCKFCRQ

[6] = target: 5-hydroxytryptamine receptor 1B (Homo sapiens) (UniProt P28222); assay: Selectivity interaction (CEREB panel (panel of receptors, transporters, ion channels, and other enzymes)) EUB0001119a HTR1B; settings: at 10 µM
[7] = target: 5-hydroxytryptamine receptor 2A (Homo sapiens, UniProt P28223); assay: Selectivity interaction (CEREB panel (panel of receptors, transporters, ion channels, and other enzymes)) EUB0001119a HTR2A; settings: at 10 µM
Sequence of 5-hydroxytryptamine receptor 2A (P28223 whole entry): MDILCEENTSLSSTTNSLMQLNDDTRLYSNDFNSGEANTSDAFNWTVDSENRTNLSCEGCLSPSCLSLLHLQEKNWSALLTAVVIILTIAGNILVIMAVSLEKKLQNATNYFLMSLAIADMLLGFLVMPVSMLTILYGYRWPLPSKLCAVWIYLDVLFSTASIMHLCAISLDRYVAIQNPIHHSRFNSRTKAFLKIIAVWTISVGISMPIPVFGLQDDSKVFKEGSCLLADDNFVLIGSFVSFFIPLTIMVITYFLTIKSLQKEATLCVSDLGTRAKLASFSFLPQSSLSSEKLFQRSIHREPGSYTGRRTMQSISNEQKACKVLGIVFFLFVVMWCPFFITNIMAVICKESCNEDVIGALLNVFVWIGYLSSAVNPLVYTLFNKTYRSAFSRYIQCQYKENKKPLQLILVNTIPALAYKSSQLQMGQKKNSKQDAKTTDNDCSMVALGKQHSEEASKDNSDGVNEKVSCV

[8] = target: T2, 5-hydroxytryptamine receptor 2B (Homo sapiens, UniProt P41595); assay: Selectivity interaction (CEREB panel (panel of receptors, transporters, ion channels, and other enzymes)) EUB0001119a HTR2B; settings: at 10 µM
T2 sequence (P41595 whole entry): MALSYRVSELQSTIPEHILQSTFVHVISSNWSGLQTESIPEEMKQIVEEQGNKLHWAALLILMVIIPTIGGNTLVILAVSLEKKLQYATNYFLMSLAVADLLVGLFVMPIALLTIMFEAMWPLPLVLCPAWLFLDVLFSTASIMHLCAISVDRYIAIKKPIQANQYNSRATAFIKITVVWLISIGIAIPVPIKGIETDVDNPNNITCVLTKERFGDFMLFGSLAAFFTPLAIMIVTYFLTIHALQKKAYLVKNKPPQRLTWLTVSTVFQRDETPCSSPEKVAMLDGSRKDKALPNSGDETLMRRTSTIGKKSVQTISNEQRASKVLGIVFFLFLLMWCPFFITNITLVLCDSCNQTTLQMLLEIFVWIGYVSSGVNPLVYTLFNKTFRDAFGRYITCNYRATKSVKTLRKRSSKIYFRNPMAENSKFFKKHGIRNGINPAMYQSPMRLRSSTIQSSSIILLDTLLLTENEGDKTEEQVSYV

[9] = target: Mitogen-activated protein kinase kinase kinase kinase 5 (Homo sapiens) (UniProt Q9Y4K4); assay: Selectivity interaction (Kinase panel (Invitrogen)) EUB0001119a MAP4K5; settings: at 100 nM
Sequence of Mitogen-activated protein kinase kinase kinase kinase 5 (Homo sapiens) (Q9Y4K4 whole entry, looked up): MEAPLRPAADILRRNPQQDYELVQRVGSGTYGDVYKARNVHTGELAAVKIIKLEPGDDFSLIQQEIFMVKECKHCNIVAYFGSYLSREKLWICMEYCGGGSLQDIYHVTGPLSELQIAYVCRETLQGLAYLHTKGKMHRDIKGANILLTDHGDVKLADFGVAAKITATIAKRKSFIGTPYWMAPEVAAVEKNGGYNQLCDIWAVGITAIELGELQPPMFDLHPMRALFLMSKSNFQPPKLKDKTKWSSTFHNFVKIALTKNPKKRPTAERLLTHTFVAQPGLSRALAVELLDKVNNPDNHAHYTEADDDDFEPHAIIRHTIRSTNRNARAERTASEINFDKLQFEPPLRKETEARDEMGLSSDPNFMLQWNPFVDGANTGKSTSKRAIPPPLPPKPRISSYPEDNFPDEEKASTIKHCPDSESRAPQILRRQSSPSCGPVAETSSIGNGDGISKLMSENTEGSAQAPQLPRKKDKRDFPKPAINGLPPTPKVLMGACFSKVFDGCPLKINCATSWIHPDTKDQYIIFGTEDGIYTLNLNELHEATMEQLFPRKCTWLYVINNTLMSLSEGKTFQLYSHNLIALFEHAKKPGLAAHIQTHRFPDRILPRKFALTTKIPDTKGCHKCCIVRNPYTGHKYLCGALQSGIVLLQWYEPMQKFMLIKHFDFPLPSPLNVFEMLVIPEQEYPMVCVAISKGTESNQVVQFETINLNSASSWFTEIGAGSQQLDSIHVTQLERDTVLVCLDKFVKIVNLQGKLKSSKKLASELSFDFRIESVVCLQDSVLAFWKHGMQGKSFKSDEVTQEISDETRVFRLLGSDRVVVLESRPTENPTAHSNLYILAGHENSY

[10] = target: Tyrosine-protein kinase Lck (Homo sapiens, UniProt P06239); assay: Selectivity interaction (Kinase panel (Invitrogen)) EUB0001119a LCK; settings: at 100 nM
[11] = target: Serine/threonine-protein kinase 24 (Homo sapiens) (UniProt Q9Y6E0); assay: Selectivity interaction (Kinase panel (Invitrogen)) EUB0001119a STK24; settings: at 100 nM
Sequence of Serine/threonine-protein kinase 24 (Homo sapiens) (Q9Y6E0 whole entry, looked up): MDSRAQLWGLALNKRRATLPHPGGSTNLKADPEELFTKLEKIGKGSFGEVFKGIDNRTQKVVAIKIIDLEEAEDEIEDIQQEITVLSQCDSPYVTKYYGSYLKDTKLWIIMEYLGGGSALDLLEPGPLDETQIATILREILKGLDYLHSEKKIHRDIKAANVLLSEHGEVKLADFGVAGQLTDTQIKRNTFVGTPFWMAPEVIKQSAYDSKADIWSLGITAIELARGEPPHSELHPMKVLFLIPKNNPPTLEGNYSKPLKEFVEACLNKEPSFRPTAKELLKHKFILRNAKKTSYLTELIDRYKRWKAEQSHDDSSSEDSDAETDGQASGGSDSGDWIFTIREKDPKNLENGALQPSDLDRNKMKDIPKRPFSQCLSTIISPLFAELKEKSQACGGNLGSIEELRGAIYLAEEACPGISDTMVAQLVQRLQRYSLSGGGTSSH

[12] = target: Serine/threonine-protein kinase PAK 3 (Homo sapiens) (UniProt O75914); assay: Selectivity interaction (Kinase panel (Invitrogen)) EUB0001119a PAK3; settings: at 100 nM
[13] = target: Sodium channel protein type 2 subunit alpha (Homo sapiens) (UniProt Q99250); assay: Selectivity interaction (CEREB panel (panel of receptors, transporters, ion channels, and other enzymes)) EUB0001119a SCN2A; settings: at 10 µM
[14] = target: Serine/threonine-protein kinase SIK1 (Homo sapiens) (UniProt P57059); assay: Selectivity interaction (Kinase panel (Invitrogen)) EUB0001119a SIK1; settings: at 100 nM
[15] = target: Serine/threonine-protein kinase PAK 2 (Homo sapiens) (UniProt Q13177); settings: at 100 nM
Sequence of Serine/threonine-protein kinase PAK 2 (Homo sapiens) (Q13177 whole entry): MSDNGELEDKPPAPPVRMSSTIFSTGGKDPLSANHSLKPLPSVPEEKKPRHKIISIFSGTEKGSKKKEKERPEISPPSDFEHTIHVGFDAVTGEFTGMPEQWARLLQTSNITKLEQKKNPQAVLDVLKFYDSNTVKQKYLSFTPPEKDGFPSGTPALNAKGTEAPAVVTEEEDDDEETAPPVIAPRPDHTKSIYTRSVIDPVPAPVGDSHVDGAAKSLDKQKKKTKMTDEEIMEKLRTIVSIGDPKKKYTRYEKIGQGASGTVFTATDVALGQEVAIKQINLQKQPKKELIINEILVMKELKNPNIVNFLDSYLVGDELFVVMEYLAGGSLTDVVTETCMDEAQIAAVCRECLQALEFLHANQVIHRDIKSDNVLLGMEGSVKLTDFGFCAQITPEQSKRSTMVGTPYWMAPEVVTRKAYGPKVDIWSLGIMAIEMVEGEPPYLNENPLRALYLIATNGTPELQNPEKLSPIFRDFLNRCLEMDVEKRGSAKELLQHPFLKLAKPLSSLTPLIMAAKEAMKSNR

[16] = target: T3, Serine/threonine-protein kinase 26 (Homo sapiens, UniProt Q9P289); settings: at 100 nM
T3 sequence (Q9P289 2-416 limits assumed): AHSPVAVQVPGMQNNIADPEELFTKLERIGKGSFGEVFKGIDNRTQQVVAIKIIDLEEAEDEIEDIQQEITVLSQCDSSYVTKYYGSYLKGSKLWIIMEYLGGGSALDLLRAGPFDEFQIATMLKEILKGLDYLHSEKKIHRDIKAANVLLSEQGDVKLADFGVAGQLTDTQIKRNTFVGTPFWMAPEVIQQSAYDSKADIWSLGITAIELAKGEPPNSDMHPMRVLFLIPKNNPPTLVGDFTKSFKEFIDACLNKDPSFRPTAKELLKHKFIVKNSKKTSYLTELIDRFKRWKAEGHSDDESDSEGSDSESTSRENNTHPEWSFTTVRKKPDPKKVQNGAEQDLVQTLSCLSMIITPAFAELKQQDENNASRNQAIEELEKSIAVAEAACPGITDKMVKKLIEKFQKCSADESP

[17] = target: Calcium/calmodulin-dependent protein kinase type II subunit gamma (Homo sapiens) (UniProt Q13555); assay: Selectivity interaction (KinaseProfile service (Milipore)) EUB0001485aCl CAMK2G; settings: at 1 µM
Sequence of Calcium/calmodulin-dependent protein kinase type II subunit gamma (Homo sapiens) (Q13555 whole entry): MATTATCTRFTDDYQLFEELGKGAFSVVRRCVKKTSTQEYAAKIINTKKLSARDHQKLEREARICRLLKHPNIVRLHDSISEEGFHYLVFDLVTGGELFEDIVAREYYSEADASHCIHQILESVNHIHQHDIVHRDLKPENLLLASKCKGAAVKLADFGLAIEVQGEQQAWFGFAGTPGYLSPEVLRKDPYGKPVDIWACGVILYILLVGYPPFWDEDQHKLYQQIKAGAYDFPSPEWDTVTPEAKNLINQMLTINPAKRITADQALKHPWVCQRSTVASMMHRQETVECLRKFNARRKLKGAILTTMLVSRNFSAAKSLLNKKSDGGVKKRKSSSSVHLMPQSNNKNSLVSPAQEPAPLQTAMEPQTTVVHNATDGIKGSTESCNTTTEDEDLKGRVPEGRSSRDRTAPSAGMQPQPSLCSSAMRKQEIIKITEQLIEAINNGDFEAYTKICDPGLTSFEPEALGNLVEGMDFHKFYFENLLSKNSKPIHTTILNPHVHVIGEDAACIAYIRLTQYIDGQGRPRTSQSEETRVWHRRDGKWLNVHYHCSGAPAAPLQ

[18] = target: Calcium/calmodulin-dependent protein kinase type II subunit delta (Homo sapiens) (UniProt Q13557); settings: at 1 µM
[19] = target: MAP kinase-interacting serine/threonine-protein kinase 2 (Homo sapiens, UniProt Q9HBH9); settings: at 1 µM
[20] = target: Epithelial discoidin domain-containing receptor 1 (Homo sapiens) (UniProt Q08345); assay: Selectivity interaction (Kinase panel (Reaction Biology)) EUB0001464a DDR1; settings: at 1 µM
[21] = target: Mitogen-activated protein kinase kinase kinase kinase 5 (Homo sapiens) (UniProt Q9Y4K4); assay: Selectivity interaction (Kinase panel (Reaction Biology)) EUB0001464a MAP4K5; settings: at 1 µM
[22] = target: Serine/threonine-protein kinase 24 (Homo sapiens) (UniProt Q9Y6E0); assay: Selectivity interaction (Kinase panel (DSF assay)) EUB0001479a STK24
[23] = target: Serine/threonine-protein kinase PAK 1 (Homo sapiens) (UniProt Q13153); assay: Selectivity interaction (Kinase panel (DSF assayt)) EUB0001479a PAK1
[24] = target: T3, Serine/threonine-protein kinase 26; assay: Selectivity interaction (Kinase panel (DSF assay)) EUB0001479a STK26
[25] = target: T2, 5-hydroxytryptamine receptor 2B; assay: Selectivity interaction (GPCR panel (PDSP screen)) EUB0001576a HTR2B; settings: at 10 µM
[26] = target: Sodium-dependent dopamine transporter (Homo sapiens, UniProt Q01959); assay: Selectivity interaction (GPCR panel (PDSP screen)) EUB0001576a SLC6A3; settings: at 10 µM
[27] = target: Sigma intracellular receptor 2 (Homo sapiens) (UniProt Q5BJF2); assay: Selectivity interaction (GPCR panel (PDSP screen)) EUB0001576a TMEM97; settings: at 10 µM

SMILES: CNc1ncc2cc(-c3ccc(-c4cccc(C)n4)cc3Cl)c(=O)n(C[C@H]3OC[C@H](N)CO3)c2n1
% of inhibition [4]: 75%
% of inhibition [5]: 56%
% of inhibition [6]: 84%
% of inhibition [7]: 75%
% of inhibition [8]: 92%
% of inhibition [9]: 99.8%
% of inhibition [10]: 75.7%
% of inhibition [11]: 80.6%
% of inhibition [12]: 91.5%
% of inhibition [13]: 75%
% of inhibition [14]: 95.3%
% of inhibition [15]: 101%
% of inhibition [16]: 89.7%

SMILES: CN(C)c1ncc2cc(-c3ccc(-c4ncccc4F)cc3Cl)c(=O)n(C[C@H]3OC[C@H](N)CO3)c2n1
dTM [22]: 0.2 K
dTM [23]: 0.9 K
dTM [24]: 0.8 K

SMILES: CN(C)C(=O)c1sc2nc(N3CCC(S(C)(=O)=O)CC3)cc(C(F)(F)F)c2c1N
% of inhibition [25]: 47.5%
% of inhibition [26]: 80.5%
% of inhibition [27]: 70.6%

The remaining lines, values ahead:

% of inhibition [1]: 27%
% of inhibition [2]: 30%
% of inhibition [3]: 4.92%
SMILES: COc1cc(-c2cncc(-c3ccc(N4CCN(C(C)C)CC4)cc3)c2C)cc(F)c1C(N)=O

% of control [17]: 59%
% of control [18]: 60%
% of control [19]: 55%
SMILES: COc1cc(-c2cn[nH]c2)ccc1C(=O)Nc1ccc2c(c1)CCNCC2

% of inhibition [20]: 28%
% of inhibition [21]: 28%
SMILES: c1ccc2c(-c3coc4cc(-c5ccc(N6CCNCC6)cc5)cnc34)ccnc2c1
